{"source": "patent US12241058B2", "about": "“Recombinant microbial system for directed evolution of glycocins and method of preparation thereof” (COUNCIL OF SCIENTIFIC & INDUSTRIAL RESEARCH, priority 2018, dated 2025)", "key": {"L. monocytogenes EGD-e": {"tested_on": "L. monocytogenes EGD-e", "experiment": "Agar diffusion test (ADT) of cell lysates, zone of growth inhibition, with PAS staining for glycosylation", "format": "cell-based, Listeria monocytogenes", "conditions": "ADT against L. monocytogenes, cleavage buffer treated cell lysate, glycosylation by PAS staining"}, "HepG2 cells": {"tested_on": "HepG2 cells", "experiment": "Anti-cancer MTT reduction assay", "format": "cell-based", "conditions": "50% cell (cancerous) death, HepG2 cells, MTT, 18-24 hours", "procedure": "(§1) Cytotoxicity of Enterocin 96 and its variants (neo-glycocins) against THP-1 cells and anti-cancer potential against HepG2 cells was measured by the conventional MTT reduction assay. HepG2 and THP-1 cells (1×10^4 cells/well) were seeded into the 96-well plate and cultured at 37° C. in an atmosphere of 5% CO2 to allow them to adhere overnight. After 24 hours, the cells were exposed to Enterocin 96 and its variants (neo-glycocins) at various concentrations (75-1000 μM) for 18-24 hours. After the incubation period, 150 μl media and the suspended cells were discarded and washed with 200 μl PBS. After that, 200 μl of fresh media was added followed by 20 μl of MTT (5 mg/mL) into each well in the 96-well plate and incubated for 4 h in CO2 incubator. One hundred and fifty microlitres of medium with MTT was removed from every well and 100 μl DMSO was added to each well to solubilize the formazan crystal by incubating for 20 min in CO2 incubator. Finally, the plates were read at 570 nm by using Multiskan Go plate-reader (Thermo Scientific) and then percentage of cell viability was determined."}, "L. monocytogenes": {"tested_on": "L. monocytogenes", "experiment": "Determination of the MIC against L. monocytogenes (96-well broth dilution)", "format": "cell-based, Listeria monocytogenes", "conditions": "Minimum Inhibitory Concentration against L. monocytogenes, 18 h at 37° C.", "procedure": "One colony of an indicator strain (L. monocytogenes) was picked from an NB agar plate, inoculated to liquid NB medium and grown at 37° C., in a shaking incubator until OD^600 nm of 0.5 was reached. Then, the culture was diluted with NB medium and serial twofold dilutions with NB medium were made. Hundred microliters of Enterocin 96 solution (1 mg/ml in MQ) were transferred to a 96-well plate and mixed with 100 μl previously prepared cell suspension of sensitive strain. Similarly, positive control Nisin (1 mg/ml in MQ, Sigma Cat. # N5764), 100 μl mixture of NB medium with the Listeria, and negative controls (media alone, untreated indicator strain). 100 μL mixture of NB medium were prepared and dispersed in the same 96-well plates. The plate was incubated for 18 h at 37° C. in a shaking incubator. After incubation, the growth of bacteria was evaluated visually and by a plate reader. The analyses were performed in triplicate. Similarly, MIC of other variants of Enterocin 96 (neo-glycocins) was determined using above described method."}, "THP-1 cells": {"tested_on": "THP-1 cells", "experiment": "Cytotoxicity MTT reduction assay", "format": "cell-based", "conditions": "50% cell death, THP-1 cells, MTT, 18-24 hours", "procedure": "as §1"}, "human red blood cells": {"tested_on": "human red blood cells", "experiment": "Hemolytic assay", "format": "cell-based", "procedure": "Samples were prepared within 3 h of performing the assay. Neo-glycocins stock solutions of 1 mg/ml were prepared by dissolving the neo-glycocins in PBS (10 mM phosphate buffer, pH 7.4); the samples were mixed by inversion to ensure neo-glycocins were completely dissolved in PBS. To prepare the Human Red Blood Cell (hRBC) solution, blood was collected from healthy individual and RBCs were isolated following standard procedure. Informed consent was acquired from all donors and this work was carried out in compliance with the ethical committee guidelines of CSIR-IMTECH with IEC NO SUIEC/14/03.\n2 ml whole blood from healthy individual was centrifuged for 30 mins at 1000 rpm(4° C.). Layer of RBCs was collected and diluted with equal volume of 1×PBS and mixture was centrifuged three times for 10 mins at 1000 rpm, 4° C. To prepare 4% RBC solution, 1 ml of RBC were mixed with 24 ml 1×PBS. To examine the hemolysis property of neo-glycocins (75-1000 μM), 20 μl of freshly prepared neo-glycocins solution was mixed with 180 μl of freshly prepared hRBC solution and was placed at 37° C. for 1 h. A total of 20 μl of PBS buffer only and 20 μl of Triton X-100 1% (w/v) were mixed with 180 μl of hRBC solution as negative and positive controls, respectively. After 1 h of incubation, all samples were centrifuged at 2500 rpm for 10 min. A total of 100 μl of supernatant was collected, and the release of hemoglobin was monitored by measuring the absorbance of the supernatant at 570 nm with a Multiskan Go plate-reader (Thermo Scientific). Hemolysis percentage for each sample was calculated by dividing sample's absorbance on positive control absorbance (complete hemolysis) multiplied by 100."}}}
{"substance": "SEQ ID NO: 59: variant of Enterocin 96: MASKRDCNLMKACCAGQAVTYAIHSLLNRLGGDSSEPAGCNDIVRKYCK (Variant of Enterocin 96)", "values": [{"measurement": "Zone of inhibition as well as glycosylation positive", "setting": "L. monocytogenes EGD-e", "value": "neither showed any bioactivity nor glycosylation"}]}
{"substance": "SEQ ID NO: 57: variant of Enterocin 96: MASKRDCNLMKACCAGQAVTYAIHSLLNRLGGDSSDWRCK (Variant of Enterocin 96)", "values": [{"measurement": "Zone of inhibition as well as glycosylation positive", "setting": "L. monocytogenes EGD-e", "value": "neither showed any bioactivity nor glycosylation"}]}
{"substance": "variant of Enterocin 96: MASKRDCNLMKACCAEQAVTYAIQSLLNRLGGDSSDPAGCNDIVRKYCK (Variant of Enterocin 96) [SEQ ID NO: 45]", "values": [{"measurement": "IC50", "setting": "HepG2 cells", "value": "222.3 ± 0.11", "unit": "µM"}, {"measurement": "Anti-bacterial activity (MIC in μM)", "setting": "L. monocytogenes", "value": ">0.54", "unit": "µM"}, {"measurement": "IC50", "setting": "THP-1 cells", "value": "167.3 ± 1.39", "unit": "µM"}, {"measurement": "Zone of inhibition as well as glycosylation positive", "setting": "L. monocytogenes EGD-e", "value": "positive"}, {"measurement": "Zone of inhibition as well as glycosylation positive", "setting": "L. monocytogenes EGD-e; listed as G16E-H24L", "value": "Yes"}, {"measurement": "Hemolysis (MHC in μM)", "setting": "human red blood cells", "value": 600, "unit": "µM"}]}
{"substance": "SEQ ID NO: 50: variant of Enterocin 96: MASKRDCNLMKACCAGQAVTYAIHSLLNRLGGDSSDPAGSNDIVRKYCK (Variant of Enterocin 96)", "values": [{"measurement": "Zone of inhibition as well as glycosylation positive", "setting": "L. monocytogenes EGD-e", "value": "positive"}, {"measurement": "Zone of inhibition as well as glycosylation positive", "setting": "L. monocytogenes EGD-e; listed as C40S", "value": "Yes"}]}
{"substance": "variant of Enterocin 96: MASKACCAGQAVTYAIHSLLNRLGGDSSDPAGCNDIVRKYCK (Variant of Enteriocin 96) [SEQ ID NO: 41]", "values": [{"measurement": "IC50", "setting": "HepG2 cells", "value": "167 ± 0.122", "unit": "µM"}, {"measurement": "Anti-bacterial activity (MIC in μM)", "setting": "L. monocytogenes", "value": ">0.54", "unit": "µM"}, {"measurement": "IC50", "setting": "THP-1 cells", "value": "309.4 ± 0.388", "unit": "µM"}, {"measurement": "Zone of inhibition as well as glycosylation positive", "setting": "L. monocytogenes EGD-e", "value": "positive"}, {"measurement": "Zone of inhibition as well as glycosylation positive", "setting": "L. monocytogenes EGD-e; listed as ECT", "value": "Yes"}, {"measurement": "Hemolysis (MHC in μM)", "setting": "human red blood cells", "value": 600, "unit": "µM"}]}
{"substance": "SEQ ID NO: 48: variant of Enterocin 96: MASKRDCNLMKACCAGQAVTYAIHSLLYRLGGDSSDPAGCNDIVRKYCK (Variant of Enterocin 96)", "values": [{"measurement": "Zone of inhibition as well as glycosylation positive", "setting": "L. monocytogenes EGD-e", "value": "positive"}, {"measurement": "Zone of inhibition as well as glycosylation positive", "setting": "L. monocytogenes EGD-e; listed as N28Y", "value": "Yes"}]}
{"substance": "SEQ ID NO: 58: variant of Enterocin 96: MASKRDCNLMKACCAGQAVTYAIHSLLNRLGGDSGDPAGCNDIVRKYCK (Variant of Enterocin 96)", "values": [{"measurement": "Zone of inhibition as well as glycosylation positive", "setting": "L. monocytogenes EGD-e", "value": "neither showed any bioactivity nor glycosylation"}]}
{"substance": "SEQ ID NO: 47: variant of Enterocin 96: MASKRDCNLMKACCAGQAVTYAIHSLLNRLGGDSSVPAGCNDIVRKYCK (Variant of Enterocin 96)", "values": [{"measurement": "Zone of inhibition as well as glycosylation positive", "setting": "L. monocytogenes EGD-e", "value": "positive"}, {"measurement": "Zone of inhibition as well as glycosylation positive", "setting": "L. monocytogenes EGD-e; listed as D36V", "value": "Yes"}]}
{"substance": "SEQ ID NO: 46: variant of Enterocin 96: MASKRDCNLMKACCAEQAVTYAIHSLLNRLGGDSSDPAGCNDIVRKYCK (Variant of Enterocin 96)", "values": [{"measurement": "Zone of inhibition as well as glycosylation positive", "setting": "L. monocytogenes EGD-e", "value": "positive"}]}
{"substance": "variant of Enterocin 96: MASKRDCNLMKACCAGQAVTYAIHSLLNRLGGDSSGPAGCNDIVRKYCK (Variant of Enterocin 96) [SEQ ID NO: 42]", "values": [{"measurement": "IC50", "setting": "HepG2 cells", "value": "204.2 ± 0.134", "unit": "µM"}, {"measurement": "Anti-bacterial activity (MIC in μM)", "setting": "L. monocytogenes", "value": ">0.54", "unit": "µM"}, {"measurement": "IC50", "setting": "THP-1 cells", "value": "279.3 ± 0.0769", "unit": "µM"}, {"measurement": "Zone of inhibition as well as glycosylation positive", "setting": "L. monocytogenes EGD-e", "value": "positive"}, {"measurement": "Zone of inhibition as well as glycosylation positive", "setting": "L. monocytogenes EGD-e; listed as D36G", "value": "Yes"}, {"measurement": "Hemolysis (MHC in μM)", "setting": "human red blood cells", "value": 600, "unit": "µM"}]}
{"substance": "SEQ ID NO: 51: variant of Enterocin 96: MASKHDCNLMKACCAGQAVTYAIHSLLNRLGGDSSDPAGCNDIVRKYCK (Variant of Enterocin 96)", "values": [{"measurement": "Zone of inhibition as well as glycosylation positive", "setting": "L. monocytogenes EGD-e", "value": "positive"}, {"measurement": "Zone of inhibition as well as glycosylation positive", "setting": "L. monocytogenes EGD-e; listed as R5H", "value": "Yes"}]}
{"substance": "SEQ ID NO: 55: variant of Enterocin 96: MASKRDCNLMKACCAGQAVTYAIHSLLNRLGGNSSDPAGCNDIVRKYCK (Variant of Enterocin 96)", "values": [{"measurement": "Zone of inhibition as well as glycosylation positive", "setting": "L. monocytogenes EGD-e", "value": "neither showed any bioactivity nor glycosylation"}]}
{"substance": "SEQ ID NO: 56: variant of Enterocin 96: MASKRDCNLMKACCAGQAVTYAIHSLLNRLGGDFSDPAGCNDIVRKYCK (Variant of Enterocin 96)", "values": [{"measurement": "Zone of inhibition as well as glycosylation positive", "setting": "L. monocytogenes EGD-e", "value": "neither showed any bioactivity nor glycosylation"}]}
{"substance": "SEQ ID NO: 54: variant of Enterocin 96: MASKRDCNLMKACCAGQAVTYAIHSLLNRLGGDPSDPAGCNDIVRKYCK (Variant of Enterocin 96)", "values": [{"measurement": "Zone of inhibition as well as glycosylation positive", "setting": "L. monocytogenes EGD-e", "value": "neither showed any bioactivity nor glycosylation"}]}
{"substance": "SEQ ID NO: 49: variant of Enterocin 96: MASKRDCNLMKACCAGHAVTYAIHSLLKRLGGDSSDPAGCNDIVRKYCK (Variant of Enterocin 96)", "values": [{"measurement": "Zone of inhibition as well as glycosylation positive", "setting": "L. monocytogenes EGD-e", "value": "positive"}, {"measurement": "Zone of inhibition as well as glycosylation positive", "setting": "L. monocytogenes EGD-e; listed as Q17H-N28K", "value": "Yes"}]}
{"substance": "SEQ ID NO: 44: variant of Enterocin 96: MASKRDCNLMKARCAGQAVTYAIHSLLNRLGGDSSDPAGCNDIVRKYCK (Variant of Enterocin 96)", "values": [{"measurement": "Zone of inhibition as well as glycosylation positive", "setting": "L. monocytogenes EGD-e", "value": "positive"}, {"measurement": "Zone of inhibition as well as glycosylation positive", "setting": "L. monocytogenes EGD-e; listed as C13R", "value": "Yes"}]}
{"substance": "SEQ ID NO: 43: variant of Enterocin 96: MASKRDCNLMKACCAGQAVTYAIQSLLNRLGGDSSDPAGCNDIVRKYCK (Variant of Enterocin 96)", "values": [{"measurement": "Zone of inhibition as well as glycosylation positive", "setting": "L. monocytogenes EGD-e", "value": "positive"}, {"measurement": "Zone of inhibition as well as glycosylation positive", "setting": "L. monocytogenes EGD-e; listed as H24Q", "value": "Yes"}]}
{"substance": "SEQ ID NO: 52: variant of Enterocin 96: MASKRDCNLMKACCAGQAVTYGIHSLLNRLGGDSSDPAGCNDIVRKYCK (Variant of Enterocin 96)", "values": [{"measurement": "Zone of inhibition as well as glycosylation positive", "setting": "L. monocytogenes EGD-e", "value": "positive"}, {"measurement": "Zone of inhibition as well as glycosylation positive", "setting": "L. monocytogenes EGD-e; listed as A22G", "value": "Yes"}]}
{"substance": "SEQ ID NO: 53: variant of Enterocin 96: MASKRDCNLMKACCAGLAVTYAIHSLLNRLGGDSSDPAGCNDIVRKYCK (Variant of Enterocin 96)", "values": [{"measurement": "Zone of inhibition as well as glycosylation positive", "setting": "L. monocytogenes EGD-e", "value": "positive"}, {"measurement": "Zone of inhibition as well as glycosylation positive", "setting": "L. monocytogenes EGD-e; listed as Q17L", "value": "Yes"}]}
